Laboratory results reported in patent US7982047B2, “Derivatives of 1,3-diones having a herbicidal activity” (Isagro Ricerca S.r.l., priority 2003, dated 2011).

Tests used:
Abutilon theofrasti [1] = assay: Pre-emergence herbicidal activity; assay type: in vivo; conditions: 500 g/ha, evaluated fifteen days after the treatment, damage vs blank
Method: (§1) Determination of the Herbicidal Activity and Phyto-Toxicity in Pre-Emergence The herbicidal activity of the compounds of the invention in pre-emergence was evaluated according to the following operative procedures. The plant species of interest (weeds or crops) were sown in pots with an upper diameter of 10 cm, a height of 10 cm and containing sandy soil. 10 pots were used for each plant species. Water was added to each pot in such a quantity as to germinate the seeds. The pots were divided into two groups, each containing 5 pots for each weed or crop. After one day from the sowing, the first set of pots was treated with a hydro-acetonic dispersion containing acetone at 10% in volume, the product under evaluation at the desired concentration and Tween 20 at 0.5%. The second set was treated with a hydro-acetonic solution only, containing acetone at 10% in volume and Tween 20 at 0.5%, and was used as comparison (blank). All pots were kept under observation in a conditioned environment under the following conditions: • temperature: 24° C.; • relative humidity: 60%; • photoperiod: 16 hours; • light intensity: 10000 lux. The pots were uniformly watered in order to ensure a sufficient humidity degree for a good development of the plants. Fifteen days after the treatment, the herbicidal activity was evaluated on the basis of the following values, which refer to the damage percentage tested on the treated plants, with respect to the non-treated plants (blank): [table]

Amaranthus retroflexus = assay: Pre-emergence herbicidal activity; assay type: in vivo; conditions: 500 g/ha, evaluated fifteen days after the treatment, damage vs blank
Method: as §1

Chenopodium album [2] = assay: Pre-emergence herbicidal activity; assay type: in vivo; conditions: 500 g/ha, evaluated fifteen days after the treatment, damage vs blank
Method: as §1

Galium aparine [3] = assay: Pre-emergence herbicidal activity; assay type: in vivo; conditions: 500 g/ha, evaluated fifteen days after the treatment, damage vs blank
Method: as §1

Ipomea purpurea = assay: Pre-emergence herbicidal activity; assay type: in vivo; conditions: 500 g/ha, evaluated fifteen days after the treatment, damage vs blank
Method: as §1

Portulaca oleracea [4] = assay: Pre-emergence herbicidal activity; assay type: in vivo; conditions: 500 g/ha, evaluated fifteen days after the treatment, damage vs blank
Method: as §1

Solanum nigrum [5] = assay: Pre-emergence herbicidal activity; assay type: in vivo; conditions: 500 g/ha, evaluated fifteen days after the treatment, damage vs blank
Method: as §1

Stellaria media [6] = assay: Pre-emergence herbicidal activity; assay type: in vivo; conditions: 500 g/ha, evaluated fifteen days after the treatment, damage vs blank
Method: as §1

Abutilon theofrasti [7] = assay: Post-emergence herbicidal activity; assay type: in vivo; conditions: 500 g/ha, evaluated fifteen days after the treatment, damage vs blank
Method: (§2) Determination of the Herbicidal Activity and Phyto-Toxicity in Post-emergence The herbicidal activity of the compounds of the invention in post-emergence was evaluated according to the following operative procedures. The plant species of interest (weeds or crops) were sown in pots with an upper diameter of 10 cm, a height of 10 cm and containing sandy soil. 10 pots were used for each plant species. Water was added to each pot in such a quantity as to germinate the seeds. The pots were divided into two groups, each containing 5 pots for each weed or crop. Fifteen days after sowing (ten, in the case of wheat), when the weeds and crops, according to the species, were 10-15 cm high, the first set of pots was treated with a hydro-acetonic dispersion containing acetone at 10% in volume, the product under evaluation at the desired concentration and Tween 20 at 0.5%. The second set was treated with a hydro-acetonic solution only, containing acetone at 10% in volume and Tween 20 at 0.5%, and was used as comparison (blank). All pots were kept under observation in a conditioned environment under the following conditions: • temperature: 24° C.; • relative humidity: 60%; • photo-period: 16 hours; • light intensity: 10000 lux. The pots were uniformly watered every other day so as to ensure a humidity degree sufficient for a good development of the plants. The herbicidal activity was evaluated fifteen days after the treatment, on the basis of the following values which refer to the percentage of damage tested on the treated plants with respect to the non-treated plants (blank): [table]

Chenopodium album [8] = assay: Post-emergence herbicidal activity; assay type: in vivo; conditions: 500 g/ha, evaluated fifteen days after the treatment, damage vs blank
Method: as §2

Galium aparine [9] = assay: Post-emergence herbicidal activity; assay type: in vivo; conditions: 500 g/ha, evaluated fifteen days after the treatment, damage vs blank
Method: as §2

Portulaca oleracea [10] = assay: Post-emergence herbicidal activity; assay type: in vivo; conditions: 500 g/ha, evaluated fifteen days after the treatment, damage vs blank
Method: as §2

Solanum nigrum [11] = assay: Post-emergence herbicidal activity; assay type: in vivo; conditions: 500 g/ha, evaluated fifteen days after the treatment, damage vs blank
Method: as §2

Stellaria media [12] = assay: Post-emergence herbicidal activity; assay type: in vivo; conditions: 500 g/ha, evaluated fifteen days after the treatment, damage vs blank
Method: as §2

With `CS(=O)(=O)c1ccc(C(=O)C(C(=O)C2CC2)c2ccc([N+](=O)[O-])cc2[N+](=O)[O-])c(Cl)c1` (stereo not shown) the melting point was 67 °C.
Work on `CS(=O)(=O)c1ccc(C(=O)C(C(=O)C(F)(F)F)c2ccccn2)c(Cl)c1` (stereo not shown) [Compound N-616, 1-[2-chloro-4-(methylsuiphonyl)phenyl]-2-(pyridin-2-yl)-4,4,4-trifluorobutane-1,3-dione] yielded a melting point of 189 °C.
In the case of `Cn1nnc(C(C(=O)c2ccc(S(C)(=O)=O)cc2Cl)C(=O)C2CC2)n1` (stereo not shown) [Compound N^o 6, 1-[2-chloro-4-(methylsulphonyl)phenyl]-3-cyclopropyl-2-(2-methyl-2H-tetrazol-5-yl)propane-1,3-dione], the “Pre-emergence herbicidal activity AT” value (Abutilon theofrasti [1]) is reported as 5 (91% damage - death of the plant.), the “Pre-emergence herbicidal activity AR” value (Amaranthus retroflexus) is reported as 5 (91% damage - death of the plant.) and the “Pre-emergence herbicidal activity CA” value (Chenopodium album [2]) is reported as 5 (91% damage - death of the plant.). For the same compound, the “Pre-emergence herbicidal activity GA” value (Galium aparine [3]) was 5 (91% damage - death of the plant.), the “Pre-emergence herbicidal activity IP” value (Ipomea purpurea) was 5 (91% damage - death of the plant.) and the “Pre-emergence herbicidal activity PO” value (Portulaca oleracea [4]) was 5 (91% damage - death of the plant.). For the same compound, the “Pre-emergence herbicidal activity SN” value (Solanum nigrum [5]) was 5 (91% damage - death of the plant.), the “Pre-emergence herbicidal activity SM” value (Stellaria media [6]) was 5 (91% damage - death of the plant.) and the “Post-emergence herbicidal activity AT” value (Abutilon theofrasti [7]) was 5 (91% damage - death of the plant.). The “Post-emergence herbicidal activity CA” value (Chenopodium album [8]) was 5 (91% damage - death of the plant.), the “Post-emergence herbicidal activity GA” value (Galium aparine [9]) was 5 (91% damage - death of the plant.) and the “Post-emergence herbicidal activity PO” value (Portulaca oleracea [10]) was 5 (91% damage - death of the plant.). The “Post-emergence herbicidal activity SN” value (Solanum nigrum [11]) was 5 (91% damage - death of the plant.) and the “Post-emergence herbicidal activity SM” value (Stellaria media [12]) was 5 (91% damage - death of the plant.).
With `Cn1nnnc1C(C(=O)c1ccc(S(C)(=O)=O)cc1Cl)C(=O)C1CC1` (stereo not shown) [Compound N^o 7, 1-[2-chloro-4-(methylsulphonyl)phenyl]-3-cyclopropyl-2-(1-methyl-1H-tetrazol-5-yl)propane-1,3-dione] the “Pre-emergence herbicidal activity AT” value (Abutilon theofrasti [1]) was 5 (91% damage - death of the plant.), the “Pre-emergence herbicidal activity AR” value (Amaranthus retroflexus) was 5 (91% damage - death of the plant.) and the “Pre-emergence herbicidal activity CA” value (Chenopodium album [2]) was 5 (91% damage - death of the plant.). The “Pre-emergence herbicidal activity PO” value (Portulaca oleracea [4]) was 5 (91% damage - death of the plant.), the “Pre-emergence herbicidal activity SN” value (Solanum nigrum [5]) was 5 (91% damage - death of the plant.) and the “Pre-emergence herbicidal activity SM” value (Stellaria media [6]) was 5 (91% damage - death of the plant.).
With `Cc1noc(C(C(=O)c2ccc(S(C)(=O)=O)cc2Cl)C(=O)C2CC2)n1` (stereo not shown) [Compound N^o 11, 1-[2-chloro-4-(methylsulphonyl)phenyl]-3-cyclopropyl-2-(3-methyl-1,2,4-oxadiazol-5-yl)propane-1,3-dione] the “Pre-emergence herbicidal activity AT” value (Abutilon theofrasti [1]) was 5 (91% damage - death of the plant.), the “Pre-emergence herbicidal activity CA” value (Chenopodium album [2]) was 5 (91% damage - death of the plant.) and the “Pre-emergence herbicidal activity IP” value (Ipomea purpurea) was 5 (91% damage - death of the plant.). The “Pre-emergence herbicidal activity PO” value (Portulaca oleracea [4]) was 5 (91% damage - death of the plant.), the “Post-emergence herbicidal activity AT” value (Abutilon theofrasti [7]) was 5 (91% damage - death of the plant.) and the “Post-emergence herbicidal activity CA” value (Chenopodium album [8]) was 5 (91% damage - death of the plant.). For the same compound, the “Post-emergence herbicidal activity SN” value (Solanum nigrum [11]) was 5 (91% damage - death of the plant.).
Compound `CS(=O)(=O)c1ccc(C(=O)C(C(=O)C2CC2)n2cncn2)c(Cl)c1` (stereo not shown) [Compound No 460, 1-[2-chloro-4-(methylsulphonyl)phenyl]-3-cyclopropyl-2-(1,2,4-triazol-1-yl)propane-1,3-dione] has a melting point of 162 °C.
Work on `CS(=O)(=O)c1ccc(C(=O)C(C(=O)C2CC2)c2nnc(C(F)(F)F)s2)c(Cl)c1` (stereo not shown) [Compound No 2918, 1-[2-chloro-4-(thylsulphonyl)phenyl]-3-cyclopropyl-2-(5-trifluoromethyl-1,3,4-thiadiazol-2-yl)propane-1,3-dione] yielded a melting point of 185 °C.
